Results as given in patent US9629822B2, “Flavonoid based antiviral targets” (UNIVERSITY OF CENTRAL FLORIDA RESEARCH FOUNDATION, INC., priority 2012, dated 2017).
“Also recorded” adds a separate entry of the source. Like-named read-outs stand apart in the source and are kept apart here.

Key:
[1] = system: CHO cells; experiment: CHO cell toxicity, MTS assay, 48 h; type: cell-based, Chinese hamster; conditions: 37° C., MTS reagent; for IC50: Cricetulus griseus, CHO, read-out: CHO 48 h IC50 value
Description: In each case, the chalcone system 8 was more toxic than the corresponding ring-closed system, 9.
The CHO assay was conducted to assess the general toxicity of each flavonoid drug. Briefly, cell growth was assayed in sterile 96-well microtiter plates (Costar 3599, Corning, N.Y., USA) in the presence of each drug. Experiments were conducted in triplicate. CHO cells were plated at 10,000 cells/mL. Drug solutions were prepared in 100% DMSO and dosed so that the final DMSO concentration was <1%. For example, 1 μL of drug solution was added to the CHO cells plated in each well in 100 μL of media. Drug additions occurred after an initial overnight incubation of CHO cells in each well. After drug was added, the cells were incubated in 5% CO2 for 48 h at 37° C. The MTS reagent (Promega Cell Titer 96 Aqueous non-radioactive cell proliferation reagent) was added (20 μL) and the CHO cells were incubated for an additional 4h and then absorbance at 490 nm was measured on a BioTek Synergy MX plate reader. […] IC50 values were determined from the corresponding plot of relative absorbance at 490 nm vs drug concentration.

[2] = TZMbI assay for cell safety (cell viability and growth, CytoTox Glo); conditions: human, TZMbI cells, read-out: % decrease in viability compared to 0.1% DMSO vehicle based on viable cell luminescence
Description: Assays were performed below in accordance with the procedures set forth in The Journal of Immunology, 2006, 176, pp. 6900-905; AIDS Research and Human Retroviruses, 2004, 20:11, pp. 1157-1665.^32,33 TZMbI assays for cell safety were performed to identify potential anti-viral compounds. TZMbI assays for cell safety were performed to identify potential anti-viral compounds per the methods.

[3] = molecular target: T1, US28 receptor (Human cytomegalovirus, UniProt P69332); experiment: PathDetect trans Elk1 luciferase reporter gene assay in US28-transfected 293T HEK cells; type: cell-based, Human Cytomegalovirus (HCMV); conditions: for Efficacy(%): maximum intrinsic activity from dose-response curve; for Efficacy(%) / Emax: negative = inverse agonism; for Emax: read-out: Efficacy(%), maximum intrinsic activity from dose-response curve; for type of activity on the US28 receptor (agonist / inverse agonist / none), in words: Elk1 reporter, US28-transfected HEK cells
T1 construct: expressed in transfected cells; host or cells: HEK 293T cells, transiently transfected
From the text: Having generated a homologous series of chalcones and flavones, their ability to interact with the US28 receptor in human embryonic kidney (HEK) cells was investigated using an Elk-1 gene reporter assay (FIG. 2). HEK cells were transfected with either an empty vector (i.e., mock cells) or with a vector carrying US 28. These matched HEK cells provided a means to evaluate off-target effects as well as innate drug toxicity. As many of the flavonoid drugs were not water-soluble, all drug stock solutions were made in 100% dimethylsulfoxide (DMSO). The final DMSO concentration for each cell-based experiment, however, was 1% DMSO. To account for the presence of DMSO, 1% DMSO controls were run in parallel. […] values of the homologous series were also determined in Chinese hamster ovary (CHO) cells in order to assess the relative toxicities of each member of the series in a different cell line (see Table 1).
Interaction with the US28 receptor was measured by a decrease in luminescence using a firefly (Photinus pyralis) luciferase-based PathDetect Elk1 gene reporter assay (FIG. 2).^23,24 This assay assessed the modulation of US28-mediated activation of mitogen-activated protein kinase (MAPK) signaling pathways (results are shown in Table 1). […] Such compounds which reduce MAPK signaling will have direct utility in the treatment of proliferative disorders including but not limited cancer.
After transfection the US28 is expressed and activates MAPK. The MAPK phosphorylates the activator domain of the GAL4dbd/Elk1 fusion protein, and causes its dimerization. The dimer then binds to the GAL4 UAS region of the reporter gene and allows for luciferase transcription. The luciferase mRNA is then translated and the luciferase protein is detected via luminescence by the use of the Bright-Glo reagent.
(§1) The efficacy of each compound on the US28 receptor was investigated in luciferase based reporter gene assay PathDetect trans Elk1 (Agilent, Stratagene)^23 as described previously.^13 Briefly, the human embryonic kidney (HEK) 293T cells were transiently-transfected with 0.1 μg Elk1, 5 μg Luc, and 5 μg of US28 vector or empty pcDNA3 vector (mock cells). Five hours after transfection, the cells were washed with DMEM containing 1% FBS, harvested, seeded in a white half-area 96-well plate (20,000 cells/well) and incubated with the indicated concentrations of test compounds. The incubation buffer consisted of DMEM, 1% FBS, 2 mM L-glutamine, 1% penicillin-streptomycin and 1% DMSO. The cells were incubated at 37° C. in the humid atmosphere with 5% CO2 for an additional 20-24 hours. The luciferase substrate BrightGlo (Promega) was used according to the manufacturer's instruction. The luminescence intensity was acquired using microplate reader Victor3V (Perkin-Elmer). The basal luminescence of mock transfected cells was approximately 500 RLU and the basal luminescence of US28-transfected cells was 4-5-fold higher (2000-2500 RLU). As the inhibitors gave differential responses in terms of their ability to reduce US 28 mediated signaling, their relative EC50 values were determined by dosing the US-28 transfected HEK cells with increasing concentrations of each compound. In this case, the EC50 value is the concentration of the compound needed to provoke a response halfway between the compound's maximal response (change in luminescence) and the no-compound control in the same US-28 transfected cell line. A plot of relative luminescence versus log of the compound concentration provided a dose-response curve from which the % efficacy was derived via non-linear regression methods using the algorithms in PRISM 5.0 (GraphPad Software, San Diego, Calif.).

[4] = system: HIV-1 BaL; experiment: Anti-HIV assay (luciferase, HIV-1 BaL infection); type: cell-based
Description: Assays were performed below in accordance with the procedures set forth in The Journal of Immunology, 2006, 176, pp. 6900-905; AIDS Research and Human Retroviruses, 2004, 20:11, pp. 1157-1665.^32,33 Cells were treated with 2 ng/mL p24 of HIV-1 BaL administered; MOI approx 0.02 (see refs 32, 33). Cells were treated with 2 ng/mL p24 of HIV-1 BaL administered; MOI approx 0.02 (see refs 32, 33).

[5] = system: mock transfected 293T HEK cells; experiment: PathDetect Elk1 luminescence in mock transfected (empty pcDNA3 vector) 293T HEK cells, off-target effect; type: cell-based, human; conditions: for activation at 10 µM: Homo sapiens, read-out: Effect(%) on mock cells with each drug at 10 μM
Description: As a control, the empty pcDNA3 plasmid vector and the components of PathDetect system were also used for mock transfection of 293T HEK cells. Controls containing 1% DMSO were run in parallel. The relative luminescence results found with mock transfected 293T HEK cells treated with 10 μM drug and the untreated 1% DMSO control were compared via the following Equation 1. % Effect on mock cells=(100%×(mock cell luminescence/DMSO control luminescence))−100% Equation (1)
This equation was derived in order to assess the net effect each compound had on non-US28 containing HEK cells transfected via the same protocol. These control experiments were critical as they provided a method to address off target effects such as compound toxicity, which could give rise to false positives in the PathDetect assay.
Compounds, which had no off-target effects, gave nearly identical luminescence values in both the mock cells and the 1% DMSO control (i.e., a mock cell luminescence/DMSO control luminescence ratio of 1) and a net effect of 0% via Equation 1 (e.g., 9j: 0% in Table 1). In contrast, compounds that were stimulatory to the treated HEK cells gave higher mock cell luminescence than the DMSO control, a ratio >1, and a net positive value in Equation 1 for the % effect on mock cells (e.g., 8f: 290%). On the other hand, compounds that were intrinsically toxic gave lower luminescence in the treated mock cells than the DMSO control, a ratio below 1, and a net negative value for the % effect on mock cells (e.g., 8d: ˜42%).
as §1

[6] = EC50 (μM), 293T HEK cells transiently expressing US28, Elk1 reporter, NE = no effect when tested at 10 μM of compound
[7] = 10 μM, Experiment 1B, 2 ng/mL p24 HIV-1 BaL
[8] = Human immunodeficiency virus 1, BAL, 10 μM, Experiment 1B, 2 ng/mL p24 HIV-1 BaL
[9] = 10 μM vs 1% DMSO control, Equation 1
[10] = pEC50 ± SEM, 293T HEK cells transiently expressing US28, Elk1 reporter

T1 sequence (P69332 whole entry): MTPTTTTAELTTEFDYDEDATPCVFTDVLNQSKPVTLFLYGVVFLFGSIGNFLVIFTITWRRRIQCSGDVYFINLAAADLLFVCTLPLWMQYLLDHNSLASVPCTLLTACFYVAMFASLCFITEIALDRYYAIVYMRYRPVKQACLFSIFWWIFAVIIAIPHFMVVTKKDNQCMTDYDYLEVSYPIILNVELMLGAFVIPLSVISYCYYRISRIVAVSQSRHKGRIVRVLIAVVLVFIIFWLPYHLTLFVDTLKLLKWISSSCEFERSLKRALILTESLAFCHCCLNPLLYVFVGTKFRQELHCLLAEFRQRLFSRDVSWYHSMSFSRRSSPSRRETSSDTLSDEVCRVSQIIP

COc1ccc(Br)cc1/C=C/C(=O)c1ccccc1O [Compound 8b, (E)-3-(5-Bromo-2-methoxyphenyl)-1-(2-hydroxyphenyl)prop-2-en-1-one] gave an IC50 [1] of 8.7 ± 0.3 µM, a cytotoxicity at 10 μM ([2]; Experiment 1A) of 64.2% and an EC50 [3, 6] of 7.8 µM. For the same molecule, the “Efficacy(%)” value [3] was ~44%, the Emax [3] was ~44% and the “RLU (relative luciferase units)” value [4, 7] was 202.3 RLU. The inhibition at 10 µM [4, 8] was 78.6%.

Work on COc1ccccc1/C=C/C(=O)c1ccccc1O [Compound 8a, (E)-1-(2-Hydroxyphenyl)-3-(2-methoxyphenyl)prop-2-en-1-one] yielded an IC50 [1] of 25.5 ± 2.7 µM, a cytotoxicity at 10 μM ([2]; Experiment 1A) of 18.7% and an activation at 10 µM [5, 9] of 8%. For the same molecule, the “type of activity on the US28 receptor (agonist / inverse agonist / none), in words” value [3] was “agonism; also recorded: agonist activity”, the “Efficacy(%)” value [3] was 67% and the EC50 [3, 10] was 1.45 µM. For the same molecule, the Emax [3] was 67%, the “RLU (relative luciferase units)” value [4, 7] was 1218.5 RLU and the inhibition at 10 µM [4, 8] was -28.8%.

With CCOc1ccc(Br)cc1/C=C/C(=O)c1ccccc1O [Compound 8c, (E)-3-(5-bromo-2-ethoxyphenyl)-1-(2-hydroxyphenyl)prop-2-en-1-one] the IC50 [1] was 7.2 ± 0.5 µM, the cytotoxicity at 10 μM ([2]; Experiment 1A) was 53.3% and the activation at 10 µM [5, 9] was -3%. The EC50 [3, 6] was 5 µM, the Emax [3] was ~88% and the “RLU (relative luciferase units)” value [4, 7] was 112.3 RLU. The inhibition at 10 µM [4, 8] was 88.1%.

With COc1ccccc1/C=C/C(=O)c1c(O)cccc1OCc1ccccc1 [Compound 8k, (E)-1-(2-(Benzyloxy)-6-hydroxyphenyl)-3-(2-methoxyphenyl)prop-2-en-1-one] the “toxicity at 10 μM in HEK cells, in words” value ([5]; 10 μM) was “very toxic”, the “Effect(%) on mock cells with each drug at 10 μM” value [5, 9] was “Toxic” and the “EC50 (μM)” value ([3]; 293T HEK cells transiently expressing US28, Elk1 reporter, NE = no effect when tested at 10 μM of compound) was “Toxic”.

With COc1ccc(Br)cc1-c1cc(=O)c2c(OCc3ccccc3)cccc2o1 [Compound 11b, 5-(Benzyloxy)-2-(5-bromo-2-methoxyphenyl)-4H-chromen-4-one] the “CHO 48 h IC50 value (μM)” value [1] was “high CHO IC50 value; also recorded: essentially non-toxic; also recorded: not toxic”, the IC50 [1] was 96.6 µM and the cytotoxicity at 5 μM ([2]; 5 μM, Experiment 2A) was -6.17%. For the same molecule, the cytotoxicity at 10 μM ([2]; Experiment 1A) was 6.4%, the cytotoxicity at 10 μM ([2]; Experiment 2A) was -5.05% and the cytotoxicity at 20 μM ([2]; 20 μM, Experiment 2A) was -18.1%. The cytotoxicity at 40 μM ([2]; 40 μM, Experiment 2A) was -29.2%, the cytotoxicity at 80 μM ([2]; 80 μM, Experiment 2A) was -1.51% and the “type of activity on the US28 receptor (agonist / inverse agonist / none), in words” value [3] was “strong inverse agonism activity; also recorded: full inverse agonist”. For the same molecule, the “Efficacy(%)” value [3] was −89%, the EC50 [3, 10] was 3.47 µM and the Emax [3] was -89%. The “RLU (relative luciferase units)” value ([4]; 5 μM, Experiment 2B) was 24.27 RLU, the “RLU (relative luciferase units)” value [4, 7] was 781.6 RLU and the “RLU (relative luciferase units)” value ([4]; 10 μM, Experiment 2B) was 34.09 RLU. For the same molecule, the “RLU (relative luciferase units)” value ([4]; 20 μM, Experiment 2B) was 40.47 RLU, the “RLU (relative luciferase units)” value ([4]; 40 μM, Experiment 2B) was 49.22 RLU and the “RLU (relative luciferase units)” value ([4]; 80 μM, Experiment 2B) was 62.68 RLU. For the same molecule, the inhibition at 5 µM ([4]; Human immunodeficiency virus 1, BAL, 5 μM, Experiment 2B) was -6.17%, the inhibition at 10 µM [4, 8] was 16.5% and the inhibition at 10 µM ([4]; Human immunodeficiency virus 1, BAL, 10 μM, Experiment 2B) was -15.1%. It also gave an inhibition at 20 µM ([4]; Human immunodeficiency virus 1, BAL, 20 μM, Experiment 2B) of -18.1%, an inhibition at 40 µM ([4]; Human immunodeficiency virus 1, BAL, 40 μM, Experiment 2B) of -29.2% and an inhibition at 80 µM ([4]; Human immunodeficiency virus 1, BAL, 80 μM, Experiment 2B) of -1.51%.

With CC[C@H](C)[C@@H]1NC(=O)CNC(=O)[C@H](CCCCN)NC(=O)CNC(=O)[C@@H]2CSSC[C@H](NC1=O)C(=O)N[C@@H](CCCNC(=N)N)C(=O)N[C@H]1CSSC[C@H](NC(=O)[C@H](CCCNC(=N)N)NC(=O)[C@@H]3CSSC[C@H](NC(=O)[C@H]([C@@H](C)CC)NC1=O)C(=O)NCC(=O)N[C@@H](CCCNC(=N)N)C(=O)NCC(=O)N[C@@H]([C@@H](C)CC)C(=O)N3)C(=O)N[C@@H]([C@@H](C)CC)C(=O)N2 [RC-101, reference compound] the cytotoxicity at 10 μM ([2]; Experiment 2A) was -1.43%, the “Mean % Inhibition of Infection” value ([4]; 10 μM, Experiment 2B) was 99.38% and the “RLU (relative luciferase units)” value ([4]; 10 μM, Experiment 2B) was 1.67 RLU.

COc1ccccc1-c1cc(=O)c2c(OCc3ccccc3)cccc2o1 [Compound 11a, 5-(Benzyloxy)-2-(2-methoxyphenyl)-4H-chromen-4-one] showed an IC50 [1] of 17.5 ± 1.9 µM and an EC50 [3, 6] of 7.3 µM.
